The values below are quoted from earlier work in PMC6155662, “Trypanocidal Activity of Quinoxaline 1,4 Di-N-oxide Derivatives as Trypanothione Reductase Inhibitors” (Molecules : A Journal of Synthetic Chemistry and Natural …, 2017).

Broadly, the Ki is a dissociation constant, usually derived from enzyme kinetics or from competition with a known ligand.

This series has as its target TR. To be noted: known TR inhibitor, quoted for comparison; no reference given; cited from earlier work.

The structures appear in SMILES notation.

With `CCN(CC)CCCC(C)Nc1c2ccc(Cl)cc2nc2ccc(OC)cc12` (stereo not shown) [mepacrine], the Ki is 19 µM.
